This note sets out measurements from article PMC12510010 (The Journal of Biological Chemistry, 2025).

Holding throughout (assay type): cell-based
Assay [1] has as its system MRP4 (cGMP in T-84 cells). Briefly: Ratiometric FRET of live cGMP production with sensor cygnet 2.1. The settings on record: STc (100 nm) + MK571 (10 μM), vs STc alone, t test p = 0.0481. As for the experimental part:
(§1) Figure 4 GCC and MRP4 are functionally coupled in the intestinal epithelial cells. A, dot-blot analysis of GST-NHERF1-4 binding with the C-terminal 50 amino acids of MRP4 (MRP4C50) that contains the C-terminal PDZ-domain binding motif ETALCOOH. GST was used as a negative control. 2 and 20 ng of purified MRP4C50 were also immobilized on the nitrocellulose membrane as positive controls for detection. The detection of the protein interaction was performed using S-protein HRP Conjugate. B, the macromolecular complex formation assay between MRP4C50 and GCCC50via NHERF3. […] D, bar-graph represents the amount of cGMP measured using ELISA from total cell lysate and the supernatant (medium) from T-84 cells treated with ± STc (1 μM, 30 min) ± MK571 (10 μM, 30 min). n represents each data point with n = 6 to 8 obtained from three independent experiments. […] E, bar-graph represents the quantitation of fluid secretion in the mouse enteroids treated with ± STc (1 μM, 30 min) ± MK571 (10 μM, 30 min). Fluid secretion in the mouse enteroids calculated from n = 8 to 25 organoids per condition. […] F, bar-graph represents the quantitation of fluid secretion in the human enteroids treated with ± STc (1 μM, 30 min) ± MK571 (10 μM, 30 min). Fluid secretion in the human enteroids calculated from n = 12 to 17 organoids per condition. […]

The test system of assay [2] is MRP4 (cGMP efflux, T-84 cells). In words: Extracellular cGMP (ELISA), T-84 cells. As to conditions: STc (1 μM, 30 min) + MK571 (10 μM, 30 min), n = 6 to 8, three independent experiments. Here is the method: as §1
Assay [3] deals with MRP4; fluid secretion in mouse enteroids. Briefly: STc-stimulated fluid secretion in mouse enteroids with MK571. The settings on record: STc (1 μM, 30 min), MK571 (10 μM, 30 min), n = 8 to 25 organoids. As for the experimental part: as §1
(§2) Intestinal crypt isolation and quantitation of fluid secretion in enteroids […]

In assay [4] the test system is MRP4; fluid secretion in human enteroids. In words: STc-stimulated fluid secretion in human enteroids with MK571. The settings on record: STc (1 μM, 30 min), MK571 (10 μM, 30 min), n = 12 to 17 organoids. As for the experimental part: as §1, §2

As for `CN(C)C(=O)CCSC(SCCC(=O)O)c1cccc(/C=C/c2ccc3ccc(Cl)cc3n2)c1` (stereo not shown) [MK571], in assay [1], the “cGMP accumulation (ratiometric FRET)” value was “synergistic accumulation of cGMP”. Moreover, the “cGMP in the cell supernatant” value in assay [2] is given as “reduced cGMP concentrations (in the cell supernatant)”. In addition, the “STc-stimulated fluid secretion with MK571” value in assay [3] and in assay [4] was “enhanced STc-stimulated fluid secretion” throughout.
